Data reported in PubChem BioAssay AID248 (DTP/NCI, 2004).
Several values for one entry are separate records, joined by “and”; a condition that tells them apart may be missing. Equal values may be shown once. Inconclusive results and toxic doses are left out. Rule as the data show it: active = T/C of 150% or more; inactive = T/C below 125%. Square brackets hold non-standard residues; d marks the D form. Peptide text beside a SMILES is read from it. * marks the point of attachment. ξ: configuration not given here. ξF = NC(Cc1ccccc1)C(=O)O; Cbz = O=C(OCc1ccccc1)*; CH2Cl = ClC*

System: L1210 leukemia ip in BDF1 mice, survival T/C
Assay: NCI In Vivo Anticancer Drug Screen. Data for tumor model L1210 Leukemia (intraperitoneal) in B6D2F1 (BDF1) mice
Settings: higher = longer survival
Summary of the method: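 Read-out is survival time, reported as the treated-group measurement over the vehicle-control measurement.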

[1] = endpoint: mean survival time, dose: 100.0 mg/kg/injection, schedule: Q01DX009 (ip), vehicle: saline
[2] = endpoint: mean survival time, dose: 200.0 mg/kg/injection, schedule: Q01DX009 (ip), vehicle: saline
[3] = endpoint: mean survival time, dose: 400.0 mg/kg/injection, schedule: Q01DX009 (ip), vehicle: saline
[4] = endpoint: mean survival time, dose: 100.0 mg/kg/injection, schedule: Q01DX001 (ip), vehicle: carboxymethylcellulose (CMC)
[5] = endpoint: mean survival time, dose: 200.0 mg/kg/injection, schedule: Q01DX001 (ip), vehicle: carboxymethylcellulose (CMC)
[6] = endpoint: mean survival time, dose: 400.0 mg/kg/injection, schedule: Q01DX001 (ip), vehicle: carboxymethylcellulose (CMC)
[7] = endpoint: mean survival time, dose: 25.0 mg/kg/injection, schedule: Q04DX003 (ip), vehicle: Klucel (hydroxypropylcellulose) (HPC)
[8] = endpoint: mean survival time, dose: 50.0 mg/kg/injection, schedule: Q04DX003 (ip), vehicle: Klucel (hydroxypropylcellulose) (HPC)
[9] = endpoint: mean survival time, dose: 100.0 mg/kg/injection, schedule: Q04DX003 (ip), vehicle: Klucel (hydroxypropylcellulose) (HPC)
[10] = endpoint: mean survival time, dose: 200.0 mg/kg/injection, schedule: Q04DX003 (ip), vehicle: Klucel (hydroxypropylcellulose) (HPC)
[11] = endpoint: mean survival time, dose: 50.0 mg/kg/injection, schedule: Q01DX009 (ip), vehicle: saline with Tween-80
[12] = endpoint: mean survival time, dose: 100.0 mg/kg/injection, schedule: Q01DX009 (ip), vehicle: saline with Tween-80
[13] = endpoint: mean survival time, dose: 200.0 mg/kg/injection, schedule: Q01DX009 (ip), vehicle: saline with Tween-80
[14] = endpoint: mean survival time, dose: 12.5 mg/kg/injection, schedule: Q01DX009 (ip), vehicle: saline
[15] = endpoint: mean survival time, dose: 25.0 mg/kg/injection, schedule: Q01DX009 (ip), vehicle: saline
[16] = endpoint: mean survival time, dose: 400.0 mg/kg/injection, schedule: Q04DX003 (ip), vehicle: Klucel (hydroxypropylcellulose) (HPC)
[17] = endpoint: mean survival time, dose: 100.0 mg/kg/injection, schedule: Q04DX003 (ip), vehicle: saline with Tween-80
[18] = endpoint: mean survival time, dose: 100.0 mg/kg/injection, schedule: Q04DX003 (ip), vehicle: saline

Measured: T/C

CC(=O)Nc1onc(C)c1[N+](=O)[O-]
inactive: [1] 101 % of control | endpoint: mean survival time, dose: 100.0 mg/kg/injection, schedule: Q04DX003 (ip), vehicle: other 91 % of control | [2] 98 % of control and 91 % of control | endpoint: mean survival time, dose: 200.0 mg/kg/injection, schedule: Q04DX003 (ip), vehicle: other 92 % of control | [3] 94 % of control and 86 % of control | endpoint: mean survival time, dose: 400.0 mg/kg/injection, schedule: Q04DX003 (ip), vehicle: other 94 % of control

O/N=C1\c2ccccc2-c2cc(Br)ccc21
inactive: [4] 95 % of control | [5] 95 % of control | [6] 90 % of control

O=CNc1ccc(Cl)cc1
inactive: [7] 92 % of control | [8] 92 % of control | [9] 87 % of control | [10] 97 % of control

CCCC/C=C/C(C)O (stereo unspecified)
inactive: [11] 101 % of control | [12] 105 % of control | [13] 97 % of control

CCCC(=O)Nc1ncnc2c1ncn2C1OC2COP(=O)(O)OC2C1OC(=O)CCC (stereo unspecified)
inactive: [14] 105 % of control | [15] 104 % of control | endpoint: mean survival time, dose: 50.0 mg/kg/injection, schedule: Q01DX009 (ip), vehicle: saline 102 % of control | [1] 102 % of control | [2] 100 % of control | [3] 104 % of control | endpoint: median survival time, dose: 25.0 mg/kg/injection, schedule: Q01DX009 (ip), vehicle: saline 100 % of control | endpoint: median survival time, dose: 50.0 mg/kg/injection, schedule: Q01DX001 (ip), vehicle: saline 100 % of control | endpoint: median survival time, dose: 50.0 mg/kg/injection, schedule: Q01DX009 (ip), vehicle: saline 100 % of control | endpoint: median survival time, dose: 100.0 mg/kg/injection, schedule: Q01DX001 (ip), vehicle: saline 100 % of control | endpoint: median survival time, dose: 100.0 mg/kg/injection, schedule: Q01DX009 (ip), vehicle: saline 100 % of control | endpoint: median survival time, dose: 200.0 mg/kg/injection, schedule: Q01DX001 (ip), vehicle: saline 100 % of control | endpoint: median survival time, dose: 200.0 mg/kg/injection, schedule: Q01DX009 (ip), vehicle: saline 100 % of control | endpoint: median survival time, dose: 400.0 mg/kg/injection, schedule: Q01DX001 (ip), vehicle: saline 100 % of control | endpoint: median survival time, dose: 400.0 mg/kg/injection, schedule: Q01DX009 (ip), vehicle: saline 100 % of control

Cc1ccc(S(=O)(=O)N2CCCC(Br)(Br)C(=O)c3ccccc32)cc1
inactive: [9] 100 % of control | [10] 97 % of control | [16] 96 % of control

CCN(CC)CCOc1cccc(C)c1C
inactive: endpoint: mean survival time, dose: 25.0 mg/kg/injection, schedule: Q01DX009 (ip), vehicle: saline with Tween-80 101 % of control | [11] 101 % of control | endpoint: mean survival time, dose: 50.0 mg/kg/injection, schedule: Q04DX003 (ip), vehicle: saline with Tween-80 98 % of control | [12] 102 % of control | [17] 90 % of control

CCCCOC(=O)CNC(=O)c1ccc([N+](=O)[O-])s1
inactive: endpoint: mean survival time, dose: 50.0 mg/kg/injection, schedule: Q01DX005 (ip), vehicle: saline 102 % of control | endpoint: mean survival time, dose: 100.0 mg/kg/injection, schedule: Q01DX005 (ip), vehicle: saline 98 % of control | endpoint: mean survival time, dose: 400.0 mg/kg/injection, schedule: Q01DX005 (ip), vehicle: saline 91 % of control

COc1ccc2c(c1)C13CCCCC1C(C2)N(CC1(c2ccccc2)CC1)CC3 (stereo unspecified)
inactive: endpoint: mean survival time, dose: 100.0 mg/kg/injection, schedule: Q01DX009 (ip), vehicle: Klucel (hydroxypropylcellulose) (HPC) 98 % of control | [9] 96 % of control | endpoint: mean survival time, dose: 200.0 mg/kg/injection, schedule: Q01DX009 (ip), vehicle: Klucel (hydroxypropylcellulose) (HPC) 90 % of control | [10] 93 % of control | [16] 101 % of control

COc1cccc(C2=CCCCC2)c1
inactive: endpoint: mean survival time, dose: 50.0 mg/kg/injection, schedule: Q01DX001 (ip), vehicle: carboxymethylcellulose (CMC) 96 % of control | [4] 93 % of control | [5] 96 % of control | [6] 98 % of control

NNC(=O)c1cc2ccncc2c2sc3ccccc3c12
inactive: [18] 92 % of control | endpoint: mean survival time, dose: 200.0 mg/kg/injection, schedule: Q04DX003 (ip), vehicle: saline 88 % of control | endpoint: mean survival time, dose: 400.0 mg/kg/injection, schedule: Q04DX003 (ip), vehicle: saline 97 % of control

O=C(CNC(=O)OCc1ccccc1)NCC(=O)NC(Cc1ccccc1)C(=O)CCl (stereo not drawn) (Cbz-Gly-Gly-[ξF]-CH2Cl)
inactive: endpoint: mean survival time, dose: 12.0 mg/kg/injection, schedule: Q01DX001 (ip), vehicle: Klucel (hydroxypropylcellulose) (HPC) 106 % of control | endpoint: mean survival time, dose: 25.0 mg/kg/injection, schedule: Q01DX001 (ip), vehicle: Klucel (hydroxypropylcellulose) (HPC) 97 % of control | [7] 98 % of control | endpoint: mean survival time, dose: 50.0 mg/kg/injection, schedule: Q01DX001 (ip), vehicle: Klucel (hydroxypropylcellulose) (HPC) 108 % of control | [8] 98 % of control | [9] 104 % of control

O=Nc1c(N=O)c(N=O)c(N=O)c(N=O)c1N=O
inactive: endpoint: mean survival time, dose: 1.0 mg/kg/injection, schedule: Q01DX015 (ip), vehicle: carboxymethylcellulose (CMC) 101 % of control | endpoint: mean survival time, dose: 2.0 mg/kg/injection, schedule: Q01DX015 (ip), vehicle: carboxymethylcellulose (CMC) 92 % of control | endpoint: mean survival time, dose: 4.0 mg/kg/injection, schedule: Q01DX015 (ip), vehicle: carboxymethylcellulose (CMC) 102 % of control | endpoint: mean survival time, dose: 8.0 mg/kg/injection, schedule: Q01DX015 (ip), vehicle: carboxymethylcellulose (CMC) 91 % of control | endpoint: mean survival time, dose: 25.0 mg/kg/injection, schedule: Q04DX003 (ip), vehicle: saline 101 % of control | endpoint: mean survival time, dose: 50.0 mg/kg/injection, schedule: Q04DX003 (ip), vehicle: saline 90 % of control | endpoint: mean survival time, dose: 100.0 mg/kg/injection, schedule: Q01DX001 (ip), vehicle: saline 107 % of control | [18] 90 % of control | endpoint: mean survival time, dose: 200.0 mg/kg/injection, schedule: Q01DX001 (ip), vehicle: saline 100 % of control | endpoint: mean survival time, dose: 400.0 mg/kg/injection, schedule: Q01DX001 (ip), vehicle: saline 100 % of control

NCCN1CCc2ccccc2C1
inactive: endpoint: mean survival time, dose: 6.25 mg/kg/injection, schedule: Q01DX009 (ip), vehicle: saline 93 % of control | [14] 106 % of control | [15] 102 % of control

O=C(C1C2C=CC(C2)C1C(=O)N1CCOCC1)N1CCOCC1 (stereo unspecified)
inactive: [17] 107 % of control | endpoint: mean survival time, dose: 200.0 mg/kg/injection, schedule: Q04DX003 (ip), vehicle: saline with Tween-80 102 % of control | endpoint: mean survival time, dose: 400.0 mg/kg/injection, schedule: Q04DX003 (ip), vehicle: saline with Tween-80 107 % of control

Cc1cnc(C#N)c(-n2ccnc2)n1
inactive: endpoint: mean survival time, dose: 50.0 mg/kg/injection, schedule: Q01DX009 (ip), vehicle: water 107 % of control | endpoint: mean survival time, dose: 100.0 mg/kg/injection, schedule: Q01DX009 (ip), vehicle: water 94 % of control | endpoint: mean survival time, dose: 100.0 mg/kg/injection, schedule: Q04DX003 (ip), vehicle: water 108 % of control | endpoint: mean survival time, dose: 200.0 mg/kg/injection, schedule: Q01DX009 (ip), vehicle: water 92 % of control | endpoint: mean survival time, dose: 200.0 mg/kg/injection, schedule: Q04DX003 (ip), vehicle: water 98 % of control

Nc1nc(N)c2c(no[n+]2[O-])n1
inactive: endpoint: mean survival time, dose: 75.0 mg/kg/injection, schedule: Q01DX001 (ip), vehicle: other 98 % of control

Cc1ccc(-n2c(=O)c(N=Nc3ccc(Br)cc3)c(O)n(-c3ccccc3Cl)c2=S)cc1
inactive: endpoint: mean survival time, dose: 37.5 mg/kg/injection, schedule: Q01DX001 (ip), vehicle: Klucel (hydroxypropylcellulose) (HPC) 107 % of control | endpoint: mean survival time, dose: 75.0 mg/kg/injection, schedule: Q01DX001 (ip), vehicle: Klucel (hydroxypropylcellulose) (HPC) 110 % of control | endpoint: mean survival time, dose: 150.0 mg/kg/injection, schedule: Q01DX001 (ip), vehicle: Klucel (hydroxypropylcellulose) (HPC) 104 % of control

COc1ccccc1C1OCC(C)(C)N1C (stereo unspecified)
inactive: [12] 101 % of control | [9] 97 % of control and 105 % of control | [13] 95 % of control | [10] 95 % of control | endpoint: mean survival time, dose: 400.0 mg/kg/injection, schedule: Q01DX009 (ip), vehicle: saline with Tween-80 102 % of control | [16] 94 % of control and 93 % of control
